Data on eleven molecules can be found in patent US5124319A, “Benzimidazole phosphono-amino acids” (American Home Products Corporation, priority 1991, dated 1992).

A word on the IC50: it is the point on the concentration scale where inhibition reaches its midpoint. What is called ED50 is the dose that gives a 50% effect, or the effect in half of the subjects.

The target in test [1] is NMDA receptor. Kind of test: [3H]CPP binding assay (displacement of tritiated CPP in rat frontal cortex homogenates). The conditions noted are these: [3H]CPP 8 nM, 23° C., 15 min, pH 7.6. The procedure: The compounds of the invention are tested for their NMDA competitive antagonist activity by their ability to displace tritiated 3-(2-carboxypiperazine-4-yl)propyl-1-phosphonic acid (CPP), a known competitive NMDA antagonist, in rat frontal cortex homogenates in the in vitro [^3 H]CPP binding assay.
Rats are decapitated and their brains are immediately removed, weighed and placed in approximately 15 volumes of ice cold 10% sucrose. Each brain is homogenized using a Potter Elvehjem glass homogenizer (12 strokes at 840 rpm) equipped with a Teflon pestle. The homogenate is then centrifuged at 1,000×g. for 10 minutes. The resulting pellet is discarded and the supernatant is centrifuged at 20,000×g. for 20 minutes. The crude mitochondrial pellet is resuspended in ice cold distilled water and dispersed using a Brinkmann Polytron (PT-10 at setting of 6 for 30 seconds). The suspension is centrifuged at 8,000×g. for 20 minutes. The resulting supernatant and buffy coat is centrifuged at 48,000×g.for 20 minutes. The final crude synaptic membrane pellet is resuspended in ice cold distilled water and centrifuged at 48,000×g. for 20 minutes.
To facilitate removal of endogenous glutamate, the membranes are resuspended in 15 volumes of ice cold 50 mMolar TRIS (pH 7.6) containing 0.04% Triton X-100. The suspension is incubated at 37° C. for 15 minutes, and then centrifuged at 20,000×g. for 20 minutes. The pellet is washed (i.e., resuspended in ice cold TRIS buffer and centrifuged at 20,000×g. for 20 minutes) twice. The membrane pellet is finally resuspended in 15 volumes ice cold 50 mMolar TRIS, distributed to several centrifuge tubes and centrifuged at 20,000×g. for 20 minutes and the pellets are frozen (-70° C.) for subsequent use in binding assays.
For the binding assay, the membrane pellets are thawed and resuspended in 15 volumes ice cold 50 mMolar TRIS (pH 7.6) buffer. Triplicate samples (1000 μl) of the membrane suspension containing between 0.2 and 0.4 mg protein/ml are incubated at 23° C. for 15 minutes with 8 nM [^3 H]CPP (New England Nuclear), one of various test solutions, and buffer in a final incubation volume of 2 ml using plastic minivials (Skatron). The samples are then centrifuged at 48,000×g. for 20 minutes and the supernatants discarded. The pellets are digested with tissue solubilizer (NCS, Amersham; 500 μl/sample) for 1 hour. Hydrochloric acid (100 μl of 4N) is added to each sample to reduce chemiluminescence during subsequent counting. Scintillation cocktail (Aqasol, DuPont; 3.2 ml) is added to each of the minivials which are then capped and shaken for 15 minutes prior to counting. The vials are placed into a Packard 460 CD (or equivalent) counter for determination of radioactivity.
Total specific binding is defined as total binding less the binding in the presence of 1 mMolar NMDA. Specific binding in the presence of a test drug is expressed as a percent of total specific binding when no drug is present. When test compounds are examined for a dose-response relationship, the results are then plotted as the logit of % binding vs. the log of the test drug concentration. Linear regression analysis then yields a straight line from which an IC50 with 95% confidence limits can be calculated.

The test system of test [2] is NMDA-induced convulsions. Put plainly: murine NMDA-induced convulsion assay (survival). The format is in vivo, mice (male Swiss-albino, CD-1 strain). The conditions noted are these: for ED50: Mus musculus, ip, 0.5 h. As for the experimental part: The compounds of the invention are further tested for their in vivo ability to antagonize NMDA in the murine NMDA-induced convulsion assay.
Male Swiss-albino mice (CD-1 strain, Charles River) 18-22 grams in weight, after 18 hours of food deprivation, are habituated to an observation chamber for 30 minutes. The mice are pretreated with the representative test compound followed thirty minutes later with NMDA, 195 mg/kg, i.p., which is a dose normally causing 90% mortality resulting from motor seizures including uncontrollable hind leg scratching or limbs and/or torso muscle jerking with loss of righting reflex followed by death within the 30 minute observation period after NMDA administration. From the latter, the ED50 for survival is determined.
Data analyzed using the probit analysis program PS-NONLIN (Natural Response Rate Version). The output of this program contains the statistical significance of the slope of the dose-response and the ED 50% and 95% confidence limits for survival.

[3] abbreviates: compounds of the invention, read-out: IC50.
[4] abbreviates: reference compounds, i.p., 30 min before NMDA 195 mg/kg i.p., 95% confidence interval, read-out: ED50 % for survival.
Where [5] appears, read: compounds of the invention, i.p., 30 min before NMDA 195 mg/kg i.p., read-out: ED50 (survival).
The mark [6] stands for this setting: standard compounds, read-out: IC50 ± S.E.M.

Counter-ions that a name gives are not always drawn. Like-named read-outs stand apart in the source and are kept apart here.

As for `Cl.Cl.N[C@H](Cc1nc2ccccc2n1CP(=O)(O)O)C(=O)O.O.O` [Example 1, R-α-Amino-1-(phosphonomethyl)-1H-benzimidazole-2-propanoic acid, dihydrochloride, dihydrate], the IC50 in test [1] (setting [3]) was determined as 59 nM. Further, in test [2] (read-out: ED50 (survival)), the ED50 came out at 2 mg/kg.
As to `CN1C(=O)CN=C(c2ccccc2)c2cc(Cl)ccc21` [Diazepam, reference compound], in test [2] (setting [4]), the ED50 was 1.91 mg/kg.
Turning to `N[C@H](Cc1nc2ccc(Cl)cc2n1CP(=O)(O)O)C(=O)O` [Example 7, R-α-Amino-6-chloro-1-(phosphonomethyl)-1H-benzimidazole-2-propanoic acid, 0.8 hydrochloride, hydrate], the IC50 in test [1] (setting [3]) came to 21.7 nM. Besides, the ED50 in test [2] (setting [5]) is under 5 mg/kg.
With `Cl.Cl.N[C@H](Cc1nc2cc(Cl)c(Cl)cc2n1CP(=O)(O)O)C(=O)O` [Example 2, R-α-Amino-5,6-dichloro-1-(phosphonomethyl)-1H-benzimidazole-2-propanoic acid, dihydrochloride], the 50% inhibitory concentration (IC50) in test [1] (setting [3]) came out at 18.2 nM. Moreover, in test [2] (read-out: ED50 (survival)), the 50% effective dose (ED50) came out at 2.7 mg/kg.
As to `O=C(O)C1CN(CCCP(=O)(O)O)CCN1` (centres unmarked) [CPP, 3-(2-carboxypiperazine-4-yl)propyl-1-phosphonic acid, reference compound], in test [2] (setting [4]), the ED50 is 1.04 mg/kg.
For the molecule `C[C@]12N[C@H](Cc3ccccc31)c1ccccc12` [MK-801, reference compound], the ED50 in test [2] (setting [4]) was 0.19 mg/kg.
Consider `N[C@@H](Cc1nc2cc(Cl)c(Cl)cc2n1CP(=O)(O)O)C(=O)O` [Example 9, S-α-Amino-5,6-dichloro-1-(phosphonomethyl)-1H-benzimidazole-2-propanoic acid, dihydrate], for which the IC50 in test [1] (setting [3]) came to 1010 nM. For the same molecule, the ED50 in test [2] (setting [5]) was over 10 mg/kg.
For `Cc1cc2nc(C[C@@H](N)C(=O)O)n(CP(=O)(O)O)c2cc1C.Cl.Cl` [Example 3, R-α-Amino-5,6-dimethyl-1-(phosphonomethyl)-1H-benzimidazole-2-propanoic acid, dihydrochloride], the IC50 in test [1] (setting [3]) is 123 nM. Also, in test [2] (3 mg/kg, 30 min before NMDA 195 mg/kg i.p.), the “% survival” value turned out to be 10%.
Regarding `Cl.N[C@H](Cc1nc2cc(Cl)ccc2n1CP(=O)(O)O)C(=O)O` [Example 8, R-α-Amino-5-chloro-1-(phosphonomethyl)-1H-benzimidazole-2-propanoic acid hydrochloride], the IC50 in test [1] (setting [3]) came out at 7 nM. Further, the 50% effective dose (ED50) in test [2] (read-out: ED50 (survival)) worked out at 0.13 mg/kg.
As for `N[C@@H](CCC(=O)O)C(=O)O` [L. Glutamic Acid, reference compound], the IC50 in test [1] (setting [6]) was 64.3 ± 4.7 nM.
For the molecule `NC(CCCCCP(=O)(O)O)C(=O)O` (centres unmarked) [AP7, reference compound], the IC50 in test [1] (setting [6]) was 639 ± 129 nM.
